Assay results as given in US12422427B2, “Compounds for treatment of diseases and methods of screening therefor” (Max-Planck-Gesellschaft zur Förderung der Wissenschaften …, priority 2018, dated 2025).
Each block holds one molecule with its values, some of them ahead of it.

Columns and labels:
[1] = system: HeLa cells expressing FUS GFP; assay: HeLa cell compound dose responses (FUS GFP, arsenate stress); assay type: cell-based
Experimental: Small dilution steps rather than concentration replicates were selected as it provides greater statistical power from a set number of samples. Final DMSO concentration was 0.08% in all samples, and each plate included at least 12 control wells with 0.08% DMSO. Cytoplasmic FUS droplet number and nuclear/cytoplasm partition of FUS were analysed using custom macros in ImageJ. Nuclei were identified by intensity thresholding of the blue fluorescence image following a 5 px Gaussian blur. Cytoplasmic FUS droplets by intensity thresholding of the green image following a 10 px weight 0.9 unsharp filter masked by the thresholded nuclei, and nuclear FUS droplets by intensity thresholding of the green image following a 5 px weight 0.9 unsharp filter and 10 px rolling ball background subtraction masked to only include thresholded nuclei. The ratio of cytoplasmic FUS drops to nuclei was taken as cytoplasmic FUS droplets per cell per field of view, and p, the ratio of partition of FUS to the nucleus and the cytoplasm, was derived from a=Vn/vt, the ratio of nuclear to total green signal per field of view, where p=a/(1−a). […] Six fields of view were captured and analysed per condition.

HeLa cells = assay: 15N lipoamide uptake by HeLa cells measured by NMR; assay type: in vitro ADME; settings: for uptake of the lipoamide present in the medium: 100 μM, 1 h, 37° C., stressed or unstressed HeLa cells
Experimental: The concentration of lipoamide relative to protein required for an effect on condensate liquidity in vitro was higher than the EC50 on cells, on the order of 100 μM lipoamide with 1 μM FUS (FIGS. 1D-1E, FIGS. 5A-5E). In cells, FUS concentrations are high for a protein (low μM)^41 and the cellular EC50 was on the order of 10 μM (FIG. 2A, FIG. 3D). We also saw inverse effects of lipoamide on FUS-containing condensates in vitro (more, larger condensates) and in cells (fewer stress granules). To reconcile this difference and to understand the relevance of the effects in vitro in cells, we wanted to know the actual concentrations of compounds in cells. In principle, isotopic labelling allows direct monitoring of isotopically-labelled compounds even in complex environment through appropriate spectroscopy. To use this approach, ^15N-labelled lipoamide (FIG. 7A) was synthesised.
Uptake of ^15N lipoamide by cells from the medium was quantified by NMR following incubation of lipoamide at 37° C. for 1 h either in the absence or presence of HeLa cells (FIG. 7B). Cellular uptake was determined by calculating the difference between medium incubated with cells or without cells for combinations of either R-(+) or (±)-lipoamide and either unstressed or stressed cells (FIG. 7C). For one sample, stressed cells with R-(+)-lipoamide, we confirmed that strong signal from the cell fraction was consistent with uptake of a large proportion of lipoamide (FIG. 7C). Both R-(+) and ±-lipoamide measurements indicated uptake of 35±11% (n=3 and 2, respectively) of the lipoamide present in the medium. No significant difference was observed either for uptake of R-(+) compared to (±)-lipoamide or stressed compared to unstressed cells (FIG. 7D).
For analysis of ^15N lipoamide uptake by cells HeLa cells expressing FUS GFP were grown in 6 well plates to 10^6 cells/well in DMEM supplemented with 10% FCS. To simultaneously stress and treat cells, the medium was replaced with 0.6 ml medium supplemented with potassium arsenate and 100 μM ^15N racemic or R-(+)-lipoamide for 1 h at 37° C. High concentrations of compound were used to maximise the signal. […] Wells were prepared for all combinations of no compound (1% DMSO control), ^15N […] or ^15N R-(+)-lipoamide, with or without potassium arsenate and with or without cells. ^1H detected ^15N edited ^1H sensitivity enhanced HSQ was used to quantify ^15N lipoamide concentration (see Supplementary Information). Solvent, pH and temperature sensitivity of the primary amide proton chemical shifts were determined using dummy samples assembled from the appropriate solvent and added compounds.
^1H detected ^15N edited ^1H sensitivity enhanced HSQC NMR (referred to here as (^15N) ^1H) spectra were acquired on a narrow bore Varian solution state spectrometer operating with a fixed field strength of 14.1 T, equipped with a room-temperature probe.
The free induction decay was recorded for an acquisition time of 0.0624 and a sweep with of 8 kHz recorded over 1000 and a recovery delays of 1 s. […] The J coupling between the amide protons and the ^15N in H2O samples was determined to be 96 Hz, and so the transfer times of 1/4 J in the INEPT portions of the pulse sequence were set to 2.6 ms. […]

[2] = system: FUS GFP localisation in stressed HeLa cells; assay: Ex vivo HeLa cell screen of FUS GFP localisation under arsenate stress; assay type: cell-based; settings: 10 μM compound 1 h pre-treatment, then 1 h 1 mM potassium arsenate
Excerpt: The inventors developed a cell-based screen using a HeLa cell line that stably expresses GFP-tagged FUS at near-endogenous levels. While not required for stress granule formation, FUS is a well-characterised protein with a domain structure typical of stress granule proteins. In the absence of cellular stress, FUS-GFP primarily localizes to the nucleus, where it is partially excluded from the nucleolus and localises to small puncta called paraspeckles (FIG. 1A). These are nuclear droplets implicated in retaining RNA in the nucleus for rapid stress response. Cells were pre-treated with 10 μM compound from a compound library for 1 h, then the cells were stressed with 1 mM potassium arsenate (still in the presence of compound) (FIG. 1B) and monitored FUS localization to stress granules. Arsenate disrupts antioxidant responses by reacting with thiol groups, blocks the tricarboxylic acid (TCA) cycle by reacting with the thiols in vital lipoyl moieties and causes general oxidative damage. In untreated stressed cells, FUS is partly exported to the cytoplasm where, in combination with other proteins and mRNA, it phase separates to form liquid-like stress granules surrounded by cytoplasm depleted in FUS (FIG. 1A).
Many compounds affected stress granule formation. Multi-parameter image analysis, including cytoplasmic puncta number, nuclear puncta number, and nuclear/cytoplasm partition, was used to rank compounds by strength of effect on FUS localisation in stressed cells (FIG. 1C). […] These were the polysome stabilising compound emetine, which prevents release of mRNA, and the heavy metal chelating compound dimercaprol (which should sequester the stressor). Edaravone, thought to be an antioxidant and used as an ALS therapeutic in Japan and the US, had no effect on FUS localization in arsenate-stressed cells.
The effect of compounds on FUS GFP localisation in stressed HeLa cells was screened in 384 well format. 4000 cells were seeded per well and incubated for 24 h, after which the medium was replaced with 40 μl fresh medium and compound added to a final concentration of 10 μM by acoustic dispensing (Labcyte Echo 550). The final concentration of DMSO in all samples was 0.1%. […]
For the initial screen FUS GFP signal was analysed using KNIME. […] Particle number and sum area, granularity at 9, 10 & 11 px (cytoplasm) or 1, 5, 6, 7, 8 & 9 px (nucleus) scale, texture at 10 px scale and integrated signal intensity were measured for the nucleus and cytoplasm in the green (FUS GFP) channel. Z scores (z=(x−μ)/σ where x is the observed value, μ the control mean and σ the control standard deviation) relative to the DMSO treated control wells on each plate were calculated for each of the parameters, and combined into the Mahalanobis distance.

- EC50 reducing stress granule number, compared among compounds ([1]; 1 h 1 mM arsenate stress): comparable EC50
Compound: O=C(O)CCCCC(S)CCS (racemic) [(±)-dihydrolipoic acid, 6,8-dimercaptooctanoic acid]

- uptake of the lipoamide present in the medium (HeLa cells): 35±11%
Compound: [15NH2]C(=O)CCCCC1CCSS1 (racemic) [±-lipoamide, ^15N (±)-Lipoamide]

Compound: SCCCS [1,3-propanedithol, 1,3-propanedithiol, reference compound]
- effect on stress granule number ([1]; up to 100 μM): no effect

Compound: CC1=NN(c2ccccc2)C(=O)C1 [Edaravone]
- effect on stress granules / FUS localisation in stressed cells [2]: no effect

- uptake of the lipoamide present in the medium (HeLa cells): 35±11%
Compound: [15NH2]C(=O)CCCC[C@@H]1CCSS1 [R-(+)-lipoamide, ^15N R-(+)-Lipoamide]

- average intracellular concentration (HeLa cells; calculated from percentage uptake, number of cells and their volume): 5.0 ± 1.6 mM
Compound: NC(=O)CCCCC1CCSS1 (stereo not drawn) [^15N lipoamide]

Compound: OCC(S)CS (stereo not drawn) [dimercaprol]
- effect on stress granules / FUS localisation in stressed cells [2]: reduction of stress granules

Compound: CC[C@H]1CN2CCc3cc(OC)c(OC)cc3[C@@H]2C[C@@H]1C[C@H]1NCCc2cc(OC)c(OC)cc21 [emetine]
- effect on stress granules / FUS localisation in stressed cells [2]: reduction of stress granules

Compound: CC1=CC(=O)c2ccccc2C1=O [menadione]
- effect on stress granules / FUS localisation in stressed cells [2]: did not reduce stress granule number
